The test system of test [1] is NO secretion by BV-2 cell line. Description: NO secretion by LPS/IFN-γ-activated BV-2 cells (Griess Reagent System). The class given is cell-based, Mouse. The method, then: (§1) Step 1: BV-2 cells in the exponential growth phase were collected, and viable cells were counted using a Vi-Cell XR cell counter. The cell suspension was adjusted to an appropriate concentration with the culture medium. 160 μL of cell suspension was added to each well of a 96-well cell culture plate, resulting in a final cell concentration of 12,000 cells per well. The culture plate was incubated for 24 hours in a 37° C., 5% CO2 incubator.
(§2) Step 2: A 10 mM DMSO compound stock solution was diluted at a ratio of 1:4 using DMSO to prepare a series of 1000× test compound solutions. These 1000× test compound solutions were further diluted at a ratio of 1:100 using cell culture medium to prepare a series of 10× test compound solutions. Finally, the 96-well plate that had been plated with cells the day before was taken out. According to the experimental well plate loading design, 20 μL of the corresponding 10× solution was added to each well, with three duplicate wells for each drug concentration. The final concentrations of the test compounds used in the experiment (i.e., 1× solutions) have a range of 10, 2.5, 0.625, 0.156, 0.0391, 0.0098, and 0.0024 μM. The final DMSO concentration in each well was 0.1%.
(§3) After the compound was added, the 96-well plate was incubated for half an hour in the 37° C., 5% CO2 incubator.
After the pre-incubation was completed, 20 μL of culture medium containing 100 ng/mL LPS and 100 ng/mL IFN-γ (final concentrations of 10 ng/mL LPS and 10 ng/mL IFN-7) was added to each well to induce the activation of BV-2 cells. The culture plate was then incubated for 24 hours in the 37° C., 5% CO2 incubator.
Step 3: After 24 hours of treatment with the compound, the culture plate was centrifuged at 1200 rpm for 5 minutes. The supernatant was pipetted into another plate, which was sealed with tinfoil and stored at −20° C. for future ELISA and Griess reagent system assays. The cell culture plate from which the supernatant had been removed was immediately used for cell proliferation assays using the CellTiter-Glo (CTG) method.
(§4) Step 5 (NO and CCL5 detection): The CCL5 levels in the supernatant were detected using an ELISA kit (Mouse CCL5/RANTES DuoSet ELISA; R&D; DY478-05), following the instructions provided with the kit. The nitric oxide (NO) levels in the supernatant were detected using the Griess Reagent System (Promega; G2930), following the instructions provided with the kit.
(§5) Step 1: Firstly, the optical density values obtained from ELISA and Griess tests were used to plot a standard curve and calculate the absolute concentrations of each sample. The absolute concentration was then calibrated using the CTG fluorescence value corresponding to each sample to obtain the calibrated concentration. The formula for calculating the calibrated concentration was: calibrated concentration=absolute concentration/CTG fluorescence value of the same sample.
Step 2: Based on the calibrated concentration of each sample, the relative percentage of CCL5 or NO secretion (i.e., CCL5 production (%) or NO production (%)) at each test concentration relative to the blank (DMSO) group was calculated. The formula for calculating the relative percentage was: relative percentage %=(calibrated concentration of the test concentration group)/(calibrated concentration of the blank group).
Step 3: Finally, the relative percentage of CCL5 secretion or the relative percentage of NO secretion was plotted against the logarithm of the compound concentration. […]
Background: The Griess reaction detects nitrite, a stable product of nitric oxide.

Test [2] concerns mouse CCL5 secretion by BV-2 cell line. The test can be described thus: CCL5 secretion by LPS/IFN-γ-activated BV-2 cells (ELISA). The class given is cell-based. The method, then:
as §1, §2, §3
After the pre-incubation was completed, 20 μL of culture medium containing 100 ng/mL LPS and 100 ng/mL IFN-γ (final concentrations of 10 ng/mL LPS and 10 ng/mL IFN-7) was added to each well to induce the activation of BV-2 cells. The culture plate was then incubated for 24 hours in the 37° C., 5% CO2 incubator. […]
as §4, §5
Step 2: Based on the calibrated concentration of each sample, the relative percentage of CCL5 or NO secretion (i.e., CCL5 production (%) or NO production (%)) at each test concentration relative to the blank (DMSO) group was calculated. […]

[3] abbreviates: 24 h co-incubation, up to 10 μM.

For the compound `CN(c1ncnc2[nH]ccc12)[C@@H]1CCc2cc(C#N)nn2C1` [Compound I], the “Maximum inhibition rate on NO secretion by BV-2” value in test [1] (setting [3]) was determined as 100%. The IC50 (usually the concentration at which inhibition is half-maximal) in test [1] (Mus musculus, BV-2, 24 h co-incubation, read-out: IC50 on NO secretion by BV-2) amounted to 487 nM; in test [2] (Mus musculus, BV-2, 24 h co-incubation) it was 863 nM. In addition, in test [2] (setting [3]), the “Maximum inhibition rate on CCL5 secretion by BV-2” value was determined as 80.29%.
